# ChEMBL document CHEMBL1201862, “PubChem BioAssay data set” (2004)
#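 Five concentrations, 48 hours, 96-well plates. GI50: concentration for 50% inhibition of growth.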 Active and inactive are the calls of the source. Cut-off read from the data, not from the text of the source: active = GI50 up to about 1.1 µM and inactive = higher.
# What was measured:
# Assay in all cases: growth of human tumour cells (NCI), 48 h
# SK-OV-3 = tested on: SK-OV-3
# HT-29 = tested on: HT-29
# OVCAR-8 = tested on: OVCAR-8
# SF-295 = tested on: SF-295
# UACC-62 = tested on: UACC-62
# RXF 393 = tested on: RXF 393
# ACHN = tested on: ACHN
# Malme-3M = tested on: Malme-3M
# KM12 = tested on: KM12
# U-251 = tested on: U-251
# SK-MEL-28 = tested on: SK-MEL-28
# K562 = tested on: K562
# NCI-H23 = tested on: NCI-H23
# MDA-N = tested on: MDA-N
# TK-10 = tested on: TK-10
# SW-620 = tested on: SW-620
# HOP-92 = tested on: HOP-92
# NCI-H226 = tested on: NCI-H226
# SF-539 = tested on: SF-539
# DU-145 = tested on: DU-145
SMILES,GI50 (SK-OV-3),GI50 (HT-29),GI50 (OVCAR-8),GI50 (SF-295),GI50 (UACC-62),GI50 (RXF 393),GI50 (ACHN),GI50 (Malme-3M),GI50 (KM12),GI50 (U-251),GI50 (SK-MEL-28),GI50 (K562),GI50 (NCI-H23),GI50 (MDA-N),GI50 (TK-10),GI50 (SW-620),GI50 (HOP-92),GI50 (NCI-H226),GI50 (SF-539),GI50 (DU-145)
COc1ccc(OC)c2c(=S)c3ccccc3[nH]c12,> 100 µM (inactive),64.6 µM (inactive),> 73.5 µM (inactive),92.3 µM (inactive),60.1 µM (inactive),54.6 µM (inactive),53 µM (inactive),84.9 µM (inactive),> 100 µM (inactive),> 87.3 µM (inactive),> 100 µM (inactive),36.3 µM (inactive),99.8 µM (inactive),> 100 µM (inactive),> 67.8 µM (inactive),> 75.3 µM (inactive),> 100 µM (inactive),> 21.5 µM (inactive),> 79.1 µM (inactive),> 100 µM (inactive)
CCOC(=O)Cn1c(C(F)(F)F)nc2nc(Cl)c(Cl)nc21,49.1 µM (inactive),51.9 µM (inactive),38.5 µM (inactive),29 µM (inactive),24.7 µM (inactive),27.8 µM (inactive),> 45.6 µM (inactive),38.4 µM (inactive),15.3 µM (inactive),33.5 µM (inactive),48.9 µM (inactive),26.7 µM (inactive),27 µM (inactive),37.2 µM (inactive),61.4 µM (inactive),54 µM (inactive),24.7 µM (inactive),50 µM (inactive),> 55.7 µM (inactive),3.8 µM (inactive)
C=C1CC/C=C(\C)CCC[C@H](C)[C@@H](O)[C@@H]2OC(=O)C(=C)[C@@H]2C[C@H]1O,29.8 µM (inactive),4.22 µM (inactive),4.71 µM (inactive),17.2 µM (inactive),8.91 µM (inactive),4.25 µM (inactive),2.73 µM (inactive),5.96 µM (inactive),15 µM (inactive),18.1 µM (inactive),2.99 µM (inactive),2.99 µM (inactive),12.5 µM (inactive),8.47 µM (inactive),1.49 µM (inactive),2.22 µM (inactive),1.18 µM (inactive),4.05 µM (inactive),2.27 µM (inactive),4.57 µM (inactive)
CC(C)[Si](OCC/C=C/C1CCC(=O)C1C(O)C1CCCCC1)(C(C)C)C(C)C (stereo not given),15.7 µM (inactive),13.2 µM (inactive),15.2 µM (inactive),16 µM (inactive),14.9 µM (inactive),8.89 µM (inactive),14.8 µM (inactive),14.8 µM (inactive),15.9 µM (inactive),15.8 µM (inactive),15.1 µM (inactive),17.2 µM (inactive),15.6 µM (inactive),19.2 µM (inactive),17.9 µM (inactive),16 µM (inactive),11.8 µM (inactive),16 µM (inactive),19.8 µM (inactive),16.4 µM (inactive)
O=C(/C=C/c1ccc([N+](=O)[O-])cc1)N1CCN(CCOC(c2ccc(F)cc2)c2ccc(F)cc2)CC1,> 100 µM (inactive),13 µM (inactive),8.87 µM (inactive),69.5 µM (inactive),13.8 µM (inactive),9.44 µM (inactive),4.34 µM (inactive),> 100 µM (inactive),7.36 µM (inactive),> 100 µM (inactive),> 100 µM (inactive),4.99 µM (inactive),> 100 µM (inactive),27.1 µM (inactive),> 100 µM (inactive),> 100 µM (inactive),6.58 µM (inactive),> 100 µM (inactive),45.9 µM (inactive),18.4 µM (inactive)
O=CC(I)=C(c1ccccc1)c1ccccc1,13.6 µM (inactive),14 µM (inactive),21.7 µM (inactive),17.3 µM (inactive),16.5 µM (inactive),15.1 µM (inactive),20.7 µM (inactive),16.2 µM (inactive),15 µM (inactive),15.1 µM (inactive),17.2 µM (inactive),18.5 µM (inactive),19.6 µM (inactive),17 µM (inactive),19.5 µM (inactive),8.47 µM (inactive),18.9 µM (inactive),23.8 µM (inactive),23.2 µM (inactive),15.2 µM (inactive)
COC(=O)[C@]12CC=C3O[C@@H]4OC5(CCCCC5)O[C@@H]4[C@H]3C1C(=O)C=CC2=O (stereo not given in full),30.7 µM (inactive),17.9 µM (inactive),20.2 µM (inactive),24.6 µM (inactive),16 µM (inactive),8.73 µM (inactive),18.5 µM (inactive),17.9 µM (inactive),10.9 µM (inactive),18.7 µM (inactive),18.9 µM (inactive),14.6 µM (inactive),17.1 µM (inactive),19.1 µM (inactive),17.1 µM (inactive),15.9 µM (inactive),18.7 µM (inactive),18.6 µM (inactive),19.6 µM (inactive),21 µM (inactive)
Cc1c2cc[n+](C)cc2c(C)c2c1sc1ccccc12,1.49 µM (inactive),3.85 µM (inactive),0.33 µM (active),0.143 µM (active),1.63 µM (inactive),1.56 µM (inactive),4.7 µM (inactive),0.542 µM (active),0.457 µM (active),0.114 µM (active),2.45 µM (inactive),2.26 µM (inactive),0.528 µM (active),2.77 µM (inactive),13.4 µM (inactive),0.553 µM (active),1.3 µM (inactive),0.383 µM (active),0.332 µM (active),1.48 µM (inactive)
CC[C@H](C)[C@H]1NC(=O)[C@@H](NC(=O)[C@@H](CC(C)C)N(C)C(=O)C2CCCN2C(=O)[C@H](C)O)[C@@H](C)OC(=O)[C@H](Cc2ccccc2)N(C)C(=O)[C@@H]2CCCN2C(=O)[C@H](CC(C)C)NC(=O)[C@@H](C)C(=O)[C@H](C(C)C)OC(=O)C[C@@H]1O (stereo not given in full),< 0.00625 µM (active),< 0.00625 µM (active),< 0.00625 µM (active),< 0.00625 µM (active),< 0.00625 µM (active),< 0.00625 µM (active),< 0.00625 µM (active),< 0.00625 µM (active),< 0.00625 µM (active),< 0.00625 µM (active),< 0.00625 µM (active),< 0.00625 µM (active),< 0.00625 µM (active),< 0.00625 µM (active),< 0.00625 µM (active),< 0.00625 µM (active),< 0.00625 µM (active),< 0.00625 µM (active),< 0.00625 µM (active),< 0.00625 µM (active)
C=C(C)[C@@H]1CC[C@]2(C(=O)O)CC[C@]3(C)[C@H](CC[C@@H]4[C@@]5(C)CC(=O)C(C)(C)[C@@H]5CC[C@]43C)[C@@H]12,10 µM (inactive),7.19 µM (inactive),11.2 µM (inactive),6.47 µM (inactive),3.28 µM (inactive),7.87 µM (inactive),7.53 µM (inactive),8.05 µM (inactive),8.77 µM (inactive),6.47 µM (inactive),8.11 µM (inactive),6.38 µM (inactive),10.9 µM (inactive),8.13 µM (inactive),11 µM (inactive),7.23 µM (inactive),11.1 µM (inactive),9.38 µM (inactive),6.08 µM (inactive),12.5 µM (inactive)
